Measured values published in ChEMBL document CHEMBL1201862, “PubChem BioAssay data set” (2004).
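All cell lines were grown in 96-well plates and treated with compound for 48 hours. GI50 is the concentration that inhibits growth by half.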 Active and inactive are the calls of the source. No stated cut-off is given here; in the data, active = GI50 up to about 1.1 µM and inactive = higher.

Assays:
Assay in all cases: inhibition of tumour cell growth, NCI panel, 48 h
DMS-114 = tested on: DMS-114
TK-10 = tested on: TK-10
SK-MEL-5 = tested on: SK-MEL-5
HOP-18 = tested on: HOP-18
SF-539 = tested on: SF-539
M14 = tested on: M14
SNB-75 = tested on: SNB-75
SNB-78 = tested on: SNB-78
UO-31 = tested on: UO-31
HL-60 = tested on: HL-60
NCI-H522 = tested on: NCI-H522
HOP-62 = tested on: HOP-62
SF-295 = tested on: SF-295
A498 = tested on: A498
HT-29 = tested on: HT-29
DMS-273 = tested on: DMS-273
OVCAR-8 = tested on: OVCAR-8
SK-MEL-2 = tested on: SK-MEL-2
KM12 = tested on: KM12
LXFL 529 = tested on: LXFL 529
UACC-257 = tested on: UACC-257
HOP-92 = tested on: HOP-92
K562 = tested on: K562
XF498 = tested on: XF498
OVCAR-3 = tested on: OVCAR-3
A549 = tested on: A549
EKVX = tested on: EKVX
HCT-15 = tested on: HCT-15
CAKI-1 = tested on: CAKI-1
KM-20L2 = tested on: KM-20L2
ACHN = tested on: ACHN
SF-268 = tested on: SF-268
SK-MEL-28 = tested on: SK-MEL-28
NCI-H23 = tested on: NCI-H23
RPMI-8226 = tested on: RPMI-8226
NCI-H460 = tested on: NCI-H460
OVCAR-4 = tested on: OVCAR-4
NCI-H226 = tested on: NCI-H226
RXF 393 = tested on: RXF 393
COLO 205 = tested on: COLO 205
SW-620 = tested on: SW-620
SK-OV-3 = tested on: SK-OV-3
SN12C = tested on: SN12C
OVCAR-5 = tested on: OVCAR-5
CCRF-CEM = tested on: CCRF-CEM
SNB-19 = tested on: SNB-19
IGROV-1 = tested on: IGROV-1
HCC 2998 = tested on: HCC 2998
MOLT-4 = tested on: MOLT-4
786-0 = tested on: 786-0
UACC-62 = tested on: UACC-62
Malme-3M = tested on: Malme-3M
U-251 = tested on: U-251
SR = tested on: SR
LOX IMVI = tested on: LOX IMVI
DLD-1 = tested on: DLD-1
HCT-116 = tested on: HCT-116

## Cn1nc(N)nc1N=S(C)(C)=N
DMS-114
  GI50: > 100 µM (inactive)
TK-10
  GI50: > 100 µM (inactive)
SK-MEL-5
  GI50: > 100 µM (inactive)
HOP-18
  GI50: > 100 µM (inactive)
SF-539
  GI50: > 100 µM (inactive)
M14
  GI50: > 100 µM (inactive)
SNB-75
  GI50: > 100 µM (inactive)
SNB-78
  GI50: > 100 µM (inactive)
UO-31
  GI50: 88.9 µM (inactive)
HL-60
  GI50: > 100 µM (inactive)
NCI-H522
  GI50: 83.9 µM (inactive)
HOP-62
  GI50: > 100 µM (inactive)
SF-295
  GI50: > 100 µM (inactive)
A498
  GI50: > 100 µM (inactive)
HT-29
  GI50: > 100 µM (inactive)
DMS-273
  GI50: > 100 µM (inactive)
OVCAR-8
  GI50: > 100 µM (inactive)
SK-MEL-2
  GI50: > 100 µM (inactive)
KM12
  GI50: > 100 µM (inactive)
LXFL 529
  GI50: > 100 µM (inactive)
UACC-257
  GI50: > 100 µM (inactive)
HOP-92
  GI50: > 100 µM (inactive)
K562
  GI50: > 100 µM (inactive)
XF498
  GI50: > 100 µM (inactive)
OVCAR-3
  GI50: > 100 µM (inactive)
A549
  GI50: > 100 µM (inactive)
EKVX
  GI50: > 100 µM (inactive)
HCT-15
  GI50: > 100 µM
CAKI-1
  GI50: > 100 µM (inactive)
KM-20L2
  GI50: > 100 µM (inactive)
ACHN
  GI50: > 100 µM (inactive)
SF-268
  GI50: > 100 µM (inactive)
SK-MEL-28
  GI50: > 100 µM (inactive)
NCI-H23
  GI50: > 100 µM (inactive)
RPMI-8226
  GI50: > 100 µM (inactive)
NCI-H460
  GI50: > 100 µM (inactive)
OVCAR-4
  GI50: > 100 µM (inactive)
NCI-H226
  GI50: 72.4 µM (inactive)
RXF 393
  GI50: > 100 µM (inactive)
COLO 205
  GI50: > 100 µM (inactive)
SW-620
  GI50: > 100 µM (inactive)
SK-OV-3
  GI50: > 100 µM (inactive)
SN12C
  GI50: > 100 µM (inactive)
OVCAR-5
  GI50: > 100 µM (inactive)
CCRF-CEM
  GI50: > 100 µM (inactive)
SNB-19
  GI50: > 100 µM (inactive)
IGROV-1
  GI50: > 100 µM (inactive)
HCC 2998
  GI50: > 100 µM (inactive)
MOLT-4
  GI50: > 100 µM (inactive)
786-0
  GI50: > 100 µM (inactive)
UACC-62
  GI50: > 100 µM (inactive)
Malme-3M
  GI50: > 100 µM (inactive)
U-251
  GI50: > 100 µM (inactive)

## CC(SC1=CC(=O)c2c(Cl)ccc(O)c2C1=O)C(=O)O (configuration not stated)
DMS-114
  GI50: 18.2 µM (inactive)
TK-10
  GI50: 20.7 µM (inactive)
SK-MEL-5
  GI50: 14.3 µM (inactive)
HOP-18
  GI50: 27.5 µM (inactive)
SF-539
  GI50: 18.3 µM (inactive)
SNB-75
  GI50: 16.9 µM (inactive)
SNB-78
  GI50: 12.6 µM (inactive)
HL-60
  GI50: 2.79 µM (inactive)
SR
  GI50: 6.56 µM (inactive)
SF-295
  GI50: 19 µM (inactive)
A498
  GI50: 67.1 µM (inactive)
HT-29
  GI50: > 10 µM (inactive)
DMS-273
  GI50: 18.1 µM (inactive)
OVCAR-8
  GI50: 18.2 µM (inactive)
SK-MEL-2
  GI50: 17.5 µM (inactive)
KM12
  GI50: 18 µM (inactive)
LXFL 529
  GI50: 16 µM (inactive)
UACC-257
  GI50: 15.8 µM (inactive)
HOP-92
  GI50: 21.6 µM (inactive)
K562
  GI50: 18.7 µM (inactive)
XF498
  GI50: 19.9 µM (inactive)
A549
  GI50: 22.4 µM (inactive)
EKVX
  GI50: 21.3 µM (inactive)
HCT-15
  GI50: 17.1 µM
KM-20L2
  GI50: 74.6 µM (inactive)
SF-268
  GI50: 20.2 µM (inactive)
SK-MEL-28
  GI50: 18.5 µM (inactive)
NCI-H23
  GI50: > 10 µM (inactive)
RPMI-8226
  GI50: 19.8 µM (inactive)
LOX IMVI
  GI50: 10.1 µM (inactive)
NCI-H460
  GI50: 26.6 µM (inactive)
NCI-H226
  GI50: 43.3 µM (inactive)
RXF 393
  GI50: > 10 µM (inactive)
COLO 205
  GI50: 21.3 µM (inactive)
SW-620
  GI50: 19.4 µM (inactive)
DLD-1
  GI50: 17.3 µM (inactive)
SN12C
  GI50: 16.7 µM (inactive)
CCRF-CEM
  GI50: 5.25 µM (inactive)
IGROV-1
  GI50: 17.3 µM (inactive)
HCC 2998
  GI50: 21.3 µM (inactive)
MOLT-4
  GI50: 18.5 µM (inactive)
HCT-116
  GI50: 17.8 µM (inactive)
Malme-3M
  GI50: 19.7 µM (inactive)
U-251
  GI50: 17.7 µM (inactive)
